Literature values in US20060275209A1, “Methods of [11c]-radiolabelling phenothiazine and phenothiazine-like compounds” (priority 2003, published 2006).

What was measured:
[1] = forms a charge transfer complex with the pigment
melanoma cells = conditions: diffuses through the cellular membranes

In the case of `CN(C)c1ccc2nc3ccc(N(C)C)cc3[s+]c2c1.[Cl-]` [Methylene blue, 3,7-bis(dimethylamino)phenothiazine-5-ium chloride], the affinity to melanin [1] is given as “very high affinity” and the “accumulation in melanoma cells” value (melanoma cells) is given as “accumulates selectively”.
